Results from patent EP0811621A2, “Carbamoyl substituted oxazoles as thromboxane receptor antagonists” (ELI LILLY AND COMPANY, priority 1996, dated 1997).
pIC50, pKd: −log10 of the molar value.

What was measured:
[1] = test system: TXA2/PGH2 receptor-induced human platelet aggregation; test: Platelet Aggregation Studies (U46619-induced aggregation in platelet-rich plasma); type: cell-based; conditions: read-out: IC50, concentration of test compound required to inhibit U46619-induced platelet aggregation by 50%, U46619 (1 micromolar), 1 min preincubation at 37 °C
Experimental: (§1) Measurement of Thromboxane Receptor Antagonism:
(§2) • 1. Receptor Binding Assay. Membranes from outdated human platelets were prepared as previously described (Mais, D. E., et al., Eur. J. Pharmacol. (1992), 227, 267-274). Incubations (220 µL) containing 10 µg of platelet membranes were performed in siliconized glass tubes (12 x 75 mm) at 30 °C for 30 min. The incubation media consisted of 10 mM Hepes, 2 mM CHAPS, 10 µM Indomethacin (pH = 7.4), ∼0.05 nM (∼25000 cpm) of [^125I]IBOP per tube, and varying concentrations of competing ligands ranging from 10^-10 to 10^-5 M. The reaction was terminated by addition of 4 mL of ice cold buffer (25 mM Tris) at pH 7.4, followed by rapid filtration through Whatman GF/C glass filters pre-soaked in 0.3% polyethyleneamine (Whatman, Inc., Clifton, NJ) using a Brandel M-24 cell harvester (Gaithersburg, MD). Non-specific binding was defined as that amount of radioactivity bound in the presence of a large molar excess (10 µM) of SQ29548, a potent TXA2/PGH2 receptor antagonist. The binding in this assay is defined in terms of the dissociation constant Kd. […] Platelet Aggregation Studies. The ability of a test compound to antagonize TXA2/PGH2 receptor-induced human platelet aggregation was studied in the following manner. Blood was collected from volunteers who denied taking any medication known to influence platelet aggregation within the previous 10 days. […] Platelet-rich plasma was prepared by centrifugation at 100 x g for 12 min, and platelet-poor plasma was prepared by centrifugation at 12,000 x g for 2 min. Receptor activation and subsequent platelet aggregation was induced by the addition of the stable analog of TXA2/PGH2, U46619 (1 micromolar). Aggregation was monitored in a Biodata PAP4 platelet aggregation profiler for 3 min after the addition of U46619. Test compound or vehicle was preincubated with platelet-rich plasma for 1 min at 37 °C prior to the induction of aggregation with U46619.

thromboxane synthase = target: T1, thromboxane synthase (Homo sapiens, UniProt P24557); test: Thromboxane synthase inhibition in vitro (whole human blood, serum TXB2 by radioimmunoassay); type: cell-based; conditions: 30 min at 37 °C
T1 construct: from tissue; host or cells: whole human blood
T1 sequence (P24557 1-533): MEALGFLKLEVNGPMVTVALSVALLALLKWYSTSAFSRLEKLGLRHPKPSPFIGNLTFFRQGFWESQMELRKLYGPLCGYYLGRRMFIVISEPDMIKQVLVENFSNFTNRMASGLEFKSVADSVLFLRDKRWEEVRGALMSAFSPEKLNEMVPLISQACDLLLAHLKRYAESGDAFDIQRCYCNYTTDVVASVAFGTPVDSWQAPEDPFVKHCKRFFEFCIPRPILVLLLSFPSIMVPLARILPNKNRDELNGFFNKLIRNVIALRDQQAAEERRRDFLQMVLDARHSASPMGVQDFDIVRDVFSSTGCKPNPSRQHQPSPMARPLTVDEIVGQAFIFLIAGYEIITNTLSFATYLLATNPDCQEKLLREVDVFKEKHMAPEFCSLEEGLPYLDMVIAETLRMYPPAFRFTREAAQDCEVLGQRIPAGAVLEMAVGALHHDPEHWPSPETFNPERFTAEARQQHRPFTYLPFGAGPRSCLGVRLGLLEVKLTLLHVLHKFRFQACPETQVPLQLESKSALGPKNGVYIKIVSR
Experimental: Measurement of Thromboxane Synthase Inhibition and Prostacyclin Formation:
(§3) • 1. In vitro Experiments. The ability of a test compound to inhibit thromboxane synthase, as well as to change the amount of prostacyclin formed, were measured using published methods. […] Serum TXB2 and 6-keto-PGF1a, the stable metabolites of TXA2 and prostacyclin (PGI2), respectively, were measured by radioimmunoassay as described (Jakubowski, J.A., et al., Arteriosclerosis, (1987), 7, 599-604). The ability of a test compound to inhibit thromboxane synthase is expressed in the form of its IC50. […] Sprague Dawley rats (300 g males) were dosed by oral gavage with either vehicle (5% acacia) or 1-10 mg/kg test compound. Blood samples were collected 1 h after dosing. Animals were anesthetized (sodium pentobarbitol, 87 mg/kg i.p.) 15 min before sample collection. Blood samples were obtained by cardiac puncture via a butterfly catheter and the first mL of blood was discarded. Blood samples were divided into duplicates and incubated at 37 °C for 1 h in 13x100 mm glass tubes. Serum was separated by centrifugation at 2000 x g for 15 min at 25 °C, transferred to polypropylene tubes, and stored at -20 °C for subsequent assay using the methods referenced above.

pithed rats = test: Absence of Agonist Activity (pressor response after i.v. administration); type: in vivo
TXA2/PGH2 receptor = target: T2, TXA2/PGH2 receptor (Homo sapiens, UniProt P21731); test: Receptor Binding Assay ([125I]IBOP, platelet membranes); conditions: 30 °C for 30 min
T2 construct: Membranes from outdated human platelets were prepared as previously described; from tissue; host or cells: human platelets (membranes)
T2 sequence (P21731 1-343): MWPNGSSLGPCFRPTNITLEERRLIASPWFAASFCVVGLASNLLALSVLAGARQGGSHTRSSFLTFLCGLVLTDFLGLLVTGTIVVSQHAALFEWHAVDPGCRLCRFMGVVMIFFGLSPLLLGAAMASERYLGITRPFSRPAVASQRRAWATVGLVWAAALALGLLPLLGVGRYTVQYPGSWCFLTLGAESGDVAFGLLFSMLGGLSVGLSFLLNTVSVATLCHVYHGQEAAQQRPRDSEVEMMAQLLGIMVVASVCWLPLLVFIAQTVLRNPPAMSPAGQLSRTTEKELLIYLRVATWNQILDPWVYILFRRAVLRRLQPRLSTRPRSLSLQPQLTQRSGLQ
Experimental: as §1, §2

TXA2 formation = test: Ex vivo inhibition of TXA2 formation following oral administration; type: in vivo; conditions: Rattus norvegicus, 1 h, Sprague Dawley rats, oral gavage, one hour after dosing
Experimental: as §3

Structure (SMILES)	pIC50 [1]	pIC50 (thromboxane synthase)	pKd (TXA2/PGH2 receptor)	also measured
O=C(O)CCCC/C=C(\c1ccc(-c2nc(C(=O)N[C@@H]3C[C@H]3c3ccccc3)co2)cc1)c1cccnc1 (single isomer, unassigned) [Example 19, (+)-(E)-7-[4-[4-[[(2-(trans)Phenylcyclopropyl)amino]carbonyl]-2-oxazolyl]phenyl]-7-(3-pyridyl)hept-6-enoic Acid]	5.30	–	–	–
O=C(O)CCCC/C=C(\c1ccc(C2=N[C@H](C(=O)NCCCCC3CCCCC3)CO2)cc1)c1cccnc1 [Example 1, (4S)-(E)-7-[4-[4-[[(4-Cyclohexylbutyl)amino]carbonyl]-4,5-dihydro-2-oxazolyl]phenyl]-7-(3-pyridyl)hept-6-enoic Acid]	–	7.09	–	–
O=C(O)CCCC/C=C(\c1ccc(-c2nc(C(=O)NCCCCC3CCCCC3)co2)cc1)c1cccnc1 [Example 2, (E)-7-[4-[4-[[(4-Cyclohexylbutyl)amino]carbonyl]-2-oxazolyl]phenyl]-7-(3-pyridyl)hept-6-enoic Acid]	6.40	7.26	8.00	pressor response (TXA2 agonist activity) (pithed rats; pithed rats, i.v., doses up to 10 mg/kg): absence of a pressor response; inhibition at 3 mg/kg (TXA2 formation): > 95%
O=C(O)CCCC/C=C(/c1ccc(C2=N[C@H](C(=O)NCCCCC3CCCCC3)CO2)cc1)c1cccnc1 [Example 3, (4S)-(Z)-7-[4-[4-[[(4-Cyclohexylbutyl)amino]carbonyl]-4,5-dihydro-2-oxazolyl]phenyl]-7-(3-pyridyl)hept-6-enoic Acid]	–	< 5.00	–	–
O=C(O)CCCC/C=C(/c1ccc(-c2nc(C(=O)NCCCCC3CCCCC3)co2)cc1)c1cccnc1 [Example 4, (Z)-7-[4-[4-[[(4-Cyclohexylbutyl)amino]carbonyl]-2-oxazolyl]phenyl]-7-(3-pyridyl)hept-6-enoic Acid]	–	< 5.00	–	–
CC(OCCCNC(=O)c1coc(-c2ccc(/C(=C\CCCCC(=O)O)c3cccnc3)cc2)n1)C1CCCCC1 (centres unmarked) [Example 26, (E)-7-[4-[4-[[[3-(1-Cyclohexylethoxy)propyl]amino]carbonyl)-2-oxazolyl]phenyl]-7-(3-pyridyl)hept-6-enoic Acid]	5.30	7.94	7.24	–
O=C(O)CCCC/C=C(\c1ccc(-c2nc(C(=O)NCCCN3CCOCC3)co2)cc1)c1cccnc1 [Example 27, (E)-7-[4-[4-[[(3-Morpholinopropyl)amino]carbonyl]-2-oxazolyl]phenyl]-7-(3-pyridyl)hept-6-enoic Acid]	–	–	< 5.00	–
O=C(O)CCCC/C=C(\c1ccc(-c2nc(C(=O)NCCCCOc3ccccc3)co2)cc1)c1cccnc1 [Example 30, (E)-7-[4-[4-[[(4-Phenoxybutyl)amino]carbonyl]-2-oxazolyl]phenyl]-7-(3-pyridyl)hept-6-enoic Acid]	6.30	7.31	7.28	–
O=C(O)CCC/C=C\C[C@H]1[C@@H]2CC[C@@H](C2)[C@@H]1NS(=O)(=O)c1ccccc1 [Example S-145, reference compound]	–	–	–	mean arterial pressure (pithed rats; one minute after dosing at 0.1 mg/kg i.v.): transient, but significant, increase
